According to PMC7449217, “The FDA-Approved Drug Nelfinavir Inhibits Lytic Cell-Free but Not Cell-Associated Nonlytic Transmission of Human Adenovirus” (Antimicrobial Agents and Chemotherapy, 2020):
Structures can show the parent of a compound that is named as a salt. Where two headings read alike, the source gives them in different places.

Experiments:
[1] = test system: HBEC; type: cell-based; conditions: human
Method: (§1) Per 96-well plate, 15,000 A549 cells, 10,000 HeLa cells, 30,000 HBECs, 30,000 HCE cells, or 30,000 CMT-93 cells were seeded in 100 μl of the respective supplemented medium and allowed to settle for 1 h at room temperature (RT) prior to cell culture incubation at 37°C with 5% CO2 and 95% humidity. The following day, the medium was replaced with 50 μl of the respective virus stock dilution giving rise to 5 to 50 plaques per 96-well plate. Fifty microliters of nelfinavir to obtain a 0.1 to 50 μM final concentration or the DMSO solvent control was also added, both in supplemented medium. For each experiment, a noninfected, treated control was performed. For uphill plaque assays, the medium volume was increased to 150 μl with identical virus and drug concentrations. For wash-in/washout experiments, the virus was incubated on cells in supplemented medium for 1 h at 37°C, cells were washed with PBS, and a 100-μl drug dilution in supplemented medium was added. All experiments were performed in four technical replicates or as indicated. Cells were incubated under standard cell culture conditions. At the indicated times postinfection, the cells were fixed, and the nuclei were stained for 1 h at RT by the addition of 33 μl 16% (wt/vol) paraformaldehyde (PFA) and 4 μg/ml Hoechst 33342 (Sigma-Aldrich, St. Louis, MO, USA) in PBS. Cells were washed three times with PBS and stored in PBS supplemented with 0.02% N3 for infections with viruses harboring a GFP transgene. For wild-type (wt) viruses, cells were quenched in PBS supplemented with 50 mM NH4Cl, permeabilized using 0.2% (vol/vol) Triton X-100 in PBS, and blocked with 0.5% (wt/vol) bovine serum albumin (BSA) in PBS. Cells were incubated with 381.7 ng/ml mouse anti-HAdV hexon protein antibody (Mab8052; Sigma-Aldrich, St. Louis, MO, USA) and subsequently stained using 2 μg/ml goat anti-mouse-Alexa Fluor 594 (catalog number A21203 or A32742; Thermo Fisher Scientific, Waltham, MA, USA). Plates were imaged on either an IXM-XL or an IXM-C automated high-throughput fluorescence microscope (Molecular Devices, San Jose, CA, USA) using a 4× objective in wide-field mode. Hoechst staining was recorded in the 4′,6-diamidino-2-phenylindole (DAPI) channel, the fluorescein isothiocyanate (FITC)/GFP channel was acquired for viral GFP, and the tetramethyl rhodamine isothiocyanate (TRITC)/Texas Red channel was acquired for hexon immunofluorescence staining.
(§2) The infection phenotype for each well was quantified using Plaque2.0 ([101]). The number of plaques was determined based on the infection signal (viral GFP or hexon immunofluorescence staining). Nuclei stained with Hoechst were segmented by using CellProfiler ([178]). Infected nuclei were classified based on the median infection signal per nucleus in CellProfiler. Data were plotted, and the EC50 (infected and treated cells), the TC50 (noninfected, treated cells), as well as the corresponding standard errors (SE) were determined using curve fitting in GraphPad (version 8.1.2; GraphPad Software, Inc.) using three-parameter inhibitor concentration-versus-response nonlinear regression. The mean TI50 was calculated as the […] ratio of the means. The TI50 SE was calculated by error propagation.

[2] = test system: HCE cells; type: cell-based; conditions: human
Method: as §1, §2

[3] = test system: HeLa cells; type: cell-based; conditions: human
Method: as §1, §2

[4] = test system: HAdV-C6; test: fluorescence-based plaque-forming assay, A549 cells; type: cell-based, human adenovirus
Method: as §1, §2

[5] = test system: HAdV-B7; test: as above; type: cell-based, human adenovirus; conditions: for TI50 (TC50/IC50): HAdV-B7 in A549, 4 dpi, Hexon
Method: as §1, §2

[6] = test system: HAdV-D30; test: as above; type: cell-based, human adenovirus
Method: as §1, §2

[7] = test system: dl712 (HAdV-C5/2-dADP); test: as above; type: cell-based, human adenovirus
Method: as §1, §2

[8] = test system: HAdV-C1; test: as above; type: cell-based, human adenovirus
Method: as §1, §2

[9] = test system: HAdV-D8; test: as above; type: cell-based, human adenovirus
Method: as §1, §2

[10] = test system: HAdV-D37; test: as above; type: cell-based, human adenovirus
Method: as §1, §2

[11] = test system: HAdV-B14a; test: as above; type: cell-based, human adenovirus
Method: as §1, §2

[12] = test system: HAdV-C2-dE3B-GFP-dADP; test: as above; type: cell-based, human adenovirus; conditions: for EC50: Human adenovirus sp., plaque numbers
Method: as §1, §2

[13] = test system: HAdV-B11; test: as above; type: cell-based, human adenovirus; conditions: for TI50 (TC50/IC50): HAdV-B11 in A549, 3 dpi, Hexon
Method: as §1, §2

[14] = test system: HAdV-C5; test: as above; type: cell-based, human adenovirus
Method: as §1, §2

[15] = test system: HAdV-C2-dE3B-GFP; test: microbe, parasite or virus in culture; type: cell-based, human adenovirus; conditions: for EC50: Human adenovirus sp.
Method: as §1, §2

[16] = test system: CMT-93 cells; test: TC50, number of nuclei in noninfected treated cells; type: cell-based, mouse; conditions: noninfected CMT-93, nuclei, 4 dpi
Method: Per 96-well plate, 15,000 A549 cells, 10,000 HeLa cells, 30,000 HBECs, 30,000 HCE cells, or 30,000 CMT-93 cells were seeded in 100 μl of the respective supplemented medium and allowed to settle for 1 h at room temperature (RT) prior to cell culture incubation at 37°C with 5% CO2 and 95% humidity. The following day, the medium was replaced with 50 μl of the respective virus stock dilution giving rise to 5 to 50 plaques per 96-well plate. Fifty microliters of nelfinavir to obtain a 0.1 to 50 μM final concentration or the DMSO solvent control was also added, both in supplemented medium. For each experiment, a noninfected, treated control was performed. […] Plates were imaged on either an IXM-XL or an IXM-C automated high-throughput fluorescence microscope (Molecular Devices, San Jose, CA, USA) using a 4× objective in wide-field mode. Hoechst staining was recorded in the 4′,6-diamidino-2-phenylindole (DAPI) channel, the fluorescein isothiocyanate (FITC)/GFP channel was acquired for viral GFP, and the tetramethyl rhodamine isothiocyanate (TRITC)/Texas Red channel was acquired for hexon immunofluorescence staining.
The infection phenotype for each well was quantified using Plaque2.0 ([101]). The number of plaques was determined based on the infection signal (viral GFP or hexon immunofluorescence staining). […] The mean TI50 was calculated as the EC50/TC50 ratio of the means. […]

Cc1c(O)cccc1C(=O)N[C@@H](CSc1ccccc1)[C@H](O)CN1C[C@H]2CCCC[C@H]2C[C@H]1C(=O)NC(C)(C)C [Nelfinavir, Nelfinavir mesylate]
TC50 ([1]; 6 days): 13.33 µM
TC50 ([1]; 8 days): 12.74 µM
TC50 ([2]; 5 days): 29.73 µM
TC50 ([2]; 8 days): 19.59 µM
TC50 ([3]; 4 days): 29.85 µM
TC50 ([3]; 5 days): 41.69 µM
TI50 (TC50/IC50) ([4]; HAdV-C6 in A549, 3 dpi, Hexon): 35.14
EC50 ([4]; Human adenovirus sp., HAdV-C6 in A549, fixation 3 dpi, read-out Hexon, plaque numbers): 0.6 µM
TI50 (TC50/IC50) [5]: 0.75
TI50 (TC50/IC50) ([5]; listed as nelfinavir): < 1
EC50 ([5]; Human adenovirus sp., HAdV-B7 in A549, fixation 4 dpi, read-out Hexon, plaque numbers): 16.9 µM
TI50 (TC50/IC50) ([6]; HAdV-D30 in A549, 5 dpi, Hexon): 3.18
EC50 ([6]; Human adenovirus sp., HAdV-D30 in A549, fixation 5 dpi, read-out Hexon, plaque numbers): 4.2 µM
EC50 ([7]; Human adenovirus sp., A549): 6.87 µM
TI50 (TC50/IC50) ([7]; dl712 (HAdV-C5/2-dADP) in A549, 5 dpi, Hexon): 2.18
TI50 (TC50/IC50) ([8]; HAdV-C1 in A549, 4 dpi, Hexon): 12.22
EC50 ([8]; Human adenovirus sp., HAdV-C1 in A549, fixation 4 dpi, read-out Hexon, plaque numbers): 1.94 µM
TI50 (TC50/IC50) ([9]; HAdV-D8 in A549, 5 dpi, Hexon): 2.36
EC50 ([9]; Human adenovirus sp., HAdV-D8 in A549, fixation 5 dpi, read-out Hexon, plaque numbers): 9.09 µM
TI50 (TC50/IC50) ([10]; HAdV-D37 in A549, 5 dpi, Hexon): 1.29
EC50 ([10]; Human adenovirus sp., HAdV-D37 in A549, fixation 5 dpi, read-out Hexon, plaque numbers): 16.7 µM
TI50 (TC50/IC50) ([11]; HAdV-B14a in A549, 3 dpi, Hexon): 38.22
EC50 ([11]; Human adenovirus sp., HAdV-B14a in A549, fixation 3 dpi, read-out Hexon, plaque numbers): 0.4 µM
TI50 (TC50/IC50) ([12]; HAdV-C2-dE3B-GFP-dADP in A549, 4 dpi, GFP): 2.11
TI50 (TC50/IC50) ([12]; HAdV-C2-dE3B-GFP-dADP in A549, 4 dpi, GFP, listed as nelfinavir): 2.1
TI50 (TC50/IC50) ([12]; HAdV-C2-dE3B-GFP-dADP in A549, 5 dpi, GFP): 6.73
TI50 (TC50/IC50) ([12]; HAdV-C2-dE3B-GFP-dADP in A549, 5 dpi, Hexon): 5.20
EC50 ([12]; A549, HAdV-C2-dE3B-GFP-dADP in A549, fixation 4 dpi (96 hpi), read-out GFP): 5.82 µM
EC50 ([12]; A549, HAdV-C2-dE3B-GFP-dADP in A549, fixation 5 dpi, read-out GFP): 2.23 µM
EC50 ([12]; A549, HAdV-C2-dE3B-GFP-dADP in A549, fixation 5 dpi, read-out Hexon): 2.88 µM
TI50 (TC50/IC50) [13]: 0.53
TI50 (TC50/IC50) ([13]; listed as nelfinavir): < 1
EC50 ([13]; Human adenovirus sp., HAdV-B11 in A549, fixation 3 dpi, read-out Hexon, plaque numbers): 28.9 µM
TI50 (TC50/IC50) ([14]; HAdV-C5 in A549, 3 dpi, VI): 21.01
EC50 ([14]; Human adenovirus sp., HAdV-C5 in A549, fixation 3 dpi, read-out VI, plaque numbers): 0.57 µM
TI50 (TC50/IC50) ([15]; HAdV-C2-dE3B-GFP in A549, 3 dpi, GFP): 66.80
TI50 (TC50/IC50) ([15]; HAdV-C2-dE3B-GFP in A549, 3 dpi, GFP, listed as nelfinavir): 66.8
TI50 (TC50/IC50) ([15]; HAdV-C2-dE3B-GFP in A549, 4 dpi, GFP): 29.43
TI50 (TC50/IC50) ([15]; HAdV-C2-dE3B-GFP in A549, 4 dpi, Hexon): 29.87
EC50 ([15]; A549, HAdV-C2-dE3B-GFP in A549, fixation 3 dpi (72 hpi), read-out GFP, plaque numbers): 0.22 µM
EC50 ([15]; A549, HAdV-C2-dE3B-GFP in A549, fixation 4 dpi, read-out GFP, plaque numbers): 0.44 µM
EC50 ([15]; A549, HAdV-C2-dE3B-GFP in A549, fixation 4 dpi, read-out Hexon, plaque numbers): 0.43 µM
EC50 ([15]; A549, read-out: EC50 of fluorescent-plaque formation, HAdV-C2-dE3B-GFP, A549 cells, 82 hpi, plaque numbers): 0.37 µM
median therapeutic index (TI50) ([15]; ratio TC50 (nuclei) / EC50 (plaques), A549 cells, 82 hpi): 27.1
TC50 ([16]; line MAdV-1-pIX-FS2A-GFP): 21.29 µM
TC50 ([16]; line MAdV-3-pIX-FS2A-GFP): 26.07 µM
